The record followed here is patent US12435072B2, “Compounds” (Vicore Pharma AB, priority 2019, dated 2025).

Read-outs that look alike come from different tables or passages of the source.

Data set [1] can be described thus: Metabolic stability in pooled human liver microsomes. The data set is classed as in vitro ADME. As to conditions: pooled human liver microsomes 0.5 mg/ml, 1 μM test compound, 37° C. A general note: Liver microsomes are a subcellular fraction often used to study metabolism.
Data set [2] addresses T1, human recombinant AT2 receptor (Homo sapiens, UniProt P50052).
T1 construct: purchased Eurofins ITEM26
T1 sequence (P50052 1-363): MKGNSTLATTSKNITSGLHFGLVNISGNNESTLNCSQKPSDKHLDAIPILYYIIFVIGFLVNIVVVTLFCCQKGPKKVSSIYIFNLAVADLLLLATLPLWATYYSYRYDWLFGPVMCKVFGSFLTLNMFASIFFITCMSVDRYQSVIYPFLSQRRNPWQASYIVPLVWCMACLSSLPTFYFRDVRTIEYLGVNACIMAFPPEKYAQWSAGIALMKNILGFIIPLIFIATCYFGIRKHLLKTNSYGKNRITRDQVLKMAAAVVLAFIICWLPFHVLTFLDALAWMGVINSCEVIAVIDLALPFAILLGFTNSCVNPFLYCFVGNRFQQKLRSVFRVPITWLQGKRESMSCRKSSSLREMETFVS
Description: Binding to AT2 receptor, radiometric scintillation assay (Eurofins). As to conditions: ligand 125I CGP 42112A, tested at 1, 10, 100 and 1000 nM. The procedure: (§1) Compounds were evaluated for binding to the human recombinant AT2 and AT1 receptor according to Eurofins protocol ITEM26 and ITEM24 using a radiometric scintillation assay.

The target in data set [3] is T2, human recombinant AT1 receptor (Homo sapiens, UniProt P30556).
T2 construct: purchased Eurofins ITEM24
T2 sequence (P30556 1-359): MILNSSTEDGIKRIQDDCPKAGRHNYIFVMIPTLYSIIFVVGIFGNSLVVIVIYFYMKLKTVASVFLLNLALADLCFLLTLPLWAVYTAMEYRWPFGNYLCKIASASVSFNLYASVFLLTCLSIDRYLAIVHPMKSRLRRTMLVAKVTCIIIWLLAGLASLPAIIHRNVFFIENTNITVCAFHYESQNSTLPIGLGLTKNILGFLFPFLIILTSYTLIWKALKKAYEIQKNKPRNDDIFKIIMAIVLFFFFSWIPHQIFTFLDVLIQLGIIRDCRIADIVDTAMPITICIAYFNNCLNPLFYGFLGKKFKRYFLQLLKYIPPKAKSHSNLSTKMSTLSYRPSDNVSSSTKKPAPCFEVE
In words: Binding to AT1 receptor, radiometric scintillation assay (Eurofins). The conditions noted are these: ligand 125I(sar1,Ile8)-AT-II, tested at 1 and 10 μM. The protocol: as §1

Data set [4] deals with T3, CYP1A (Homo sapiens, UniProt P05177).
T3 construct: incubated with human liver microsomes; tissue Eurofins ITEMG232; host or cells: human liver microsomes
T3 sequence (P05177 1-516): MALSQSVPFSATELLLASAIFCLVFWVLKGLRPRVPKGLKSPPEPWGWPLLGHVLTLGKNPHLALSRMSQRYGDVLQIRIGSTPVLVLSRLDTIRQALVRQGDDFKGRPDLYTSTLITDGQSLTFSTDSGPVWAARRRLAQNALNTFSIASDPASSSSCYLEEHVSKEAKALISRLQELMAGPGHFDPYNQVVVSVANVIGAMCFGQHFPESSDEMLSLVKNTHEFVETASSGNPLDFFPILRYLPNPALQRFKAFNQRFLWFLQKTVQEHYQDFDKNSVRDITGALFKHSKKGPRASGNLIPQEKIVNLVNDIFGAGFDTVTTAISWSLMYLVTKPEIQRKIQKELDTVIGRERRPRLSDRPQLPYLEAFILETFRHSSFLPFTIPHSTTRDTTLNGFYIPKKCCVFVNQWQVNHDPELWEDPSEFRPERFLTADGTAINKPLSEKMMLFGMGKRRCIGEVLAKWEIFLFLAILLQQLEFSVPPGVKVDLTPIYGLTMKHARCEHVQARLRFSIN
Description: CYP inhibition in human liver microsomes, CYP1A. In kind it is in vitro ADME. As to conditions: probe phenacetin, substrate phenacetin, read-out: CYP1A Inh %. The protocol:
(§2) The following substrates were used: CYP1A phenacetin, CYP2B6 bupropion, CYP2C8 paclitaxel and amodiaquine, CYP2C9 diclofenac, CYP2C19 omeprazole, CYP2D6 dextromethorphan, CYP3A midazolam and testosterone. At the end of the incubation, the formation of metabolite was monitored by HPLC-MS/MS as the peak area response.

Data set [5] deals with T4, CYP2C8 (Homo sapiens, UniProt P10632).
T4 construct: incubated with human liver microsomes; tissue Eurofins ITEMG232; host or cells: human liver microsomes
T4 sequence (P10632 1-490): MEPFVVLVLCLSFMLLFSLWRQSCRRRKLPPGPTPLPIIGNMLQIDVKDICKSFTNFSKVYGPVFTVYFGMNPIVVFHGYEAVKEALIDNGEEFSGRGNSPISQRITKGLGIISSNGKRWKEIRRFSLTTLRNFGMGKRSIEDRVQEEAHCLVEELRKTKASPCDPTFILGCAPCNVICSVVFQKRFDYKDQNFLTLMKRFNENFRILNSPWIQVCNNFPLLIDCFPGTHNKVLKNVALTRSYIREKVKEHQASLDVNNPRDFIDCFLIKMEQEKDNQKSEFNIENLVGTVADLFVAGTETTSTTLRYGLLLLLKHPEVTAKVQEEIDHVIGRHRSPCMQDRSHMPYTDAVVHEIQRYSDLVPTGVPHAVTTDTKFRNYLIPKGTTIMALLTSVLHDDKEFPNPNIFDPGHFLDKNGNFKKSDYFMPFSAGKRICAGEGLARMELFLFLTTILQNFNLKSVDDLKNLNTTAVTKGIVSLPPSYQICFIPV
In words: CYP inhibition in human liver microsomes, CYP2C8. The data set is classed as in vitro ADME. As to conditions: probe paclitaxel and amodiaquine, substrate paclitaxel and amodiaquine, read-out: CYP2C8 Inh %. The method, boiled down:
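Metabolite formation, quantified by HPLC-MS/MS peak area at the end of incubation, served as the read-out. Probe substrates in the microsomes were diclofenac (CYP2C9), dextromethorphan (CYP2D6), and paclitaxel or amodiaquine (CYP2C8).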

Data set [6] has as its system CYP3A4&5. In words: CYP inhibition in human liver microsomes, CYP3A4&5 (testosterone). The data set is classed as in vitro ADME. The conditions noted are these: probe testosterone, substrate testosterone, read-out: CYP3A4&5 testosterone Inh %. The procedure: as §2
For data set [7], the target named is CYP3A4 (Homo sapiens, UniProt P08684). Description: CYP inhibition in human liver microsomes, CYP3A4 (midazolam). In kind it is in vitro ADME. Also noted: incubated with human liver microsomes; tissue Eurofins ITEMG232; host or cells: human liver microsomes. As to conditions: probe midazolam, substrate midazolam, read-out: CYP3A4 midazolam Inh %. The procedure:
as §2

Setting [8] is: with 1 mM NADPH, read-out: T1/2, + NaDPH.
The mark [9] stands for this setting: without NADPH, read-out: T1/2, no NaDPH.

Chain of CYP3A4 (P08684 whole entry): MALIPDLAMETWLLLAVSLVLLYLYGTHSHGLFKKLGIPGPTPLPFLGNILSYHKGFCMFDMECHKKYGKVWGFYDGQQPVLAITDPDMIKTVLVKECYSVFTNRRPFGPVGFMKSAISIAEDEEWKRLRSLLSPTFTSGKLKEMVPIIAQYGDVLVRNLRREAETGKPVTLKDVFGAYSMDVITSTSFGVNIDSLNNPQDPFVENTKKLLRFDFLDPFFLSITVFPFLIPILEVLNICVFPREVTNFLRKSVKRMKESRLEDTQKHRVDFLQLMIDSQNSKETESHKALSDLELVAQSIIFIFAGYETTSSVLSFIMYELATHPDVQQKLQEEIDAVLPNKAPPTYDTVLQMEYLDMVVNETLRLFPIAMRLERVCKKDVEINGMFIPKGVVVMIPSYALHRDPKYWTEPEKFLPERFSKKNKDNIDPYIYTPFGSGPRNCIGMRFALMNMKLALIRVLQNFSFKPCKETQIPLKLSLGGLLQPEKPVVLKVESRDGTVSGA

What is called IC50 is the midpoint of a concentration-inhibition curve. Consider `Cc1nccn1Cc1ccc(-c2cc(CC(C)C)sc2S(=O)(=O)NC(=O)NCC2CCC(F)(F)CC2)cc1F.O=C(O)C(F)(F)F` [Example 40, 1-[(4,4-difluorocyclohexyl)methyl]-3-[(3-{3-fluoro-4-[(2-methyl-1H-imidazol-1-yl)methyl]phenyl}-5-(2-methylpropyl)thiophen-2-yl)sulfonyl]urea trifluoroacetic acid], for which the half-life at 1 μM in data set [1] (setting [8]) was 4 min; in data set [1] (setting [9]), greater than 60 min. In addition, the IC50 stood at 7.7 nM in data set [2] and 17 µM in data set [3]. The inhibition at 10 µM was -1% in data set [4], 64% in data set [5], 63% in data set [6] and 85% in data set [7].

On to `CC(C)Cc1cc(-c2ccc(Cn3ccnc3C(C)C)c(F)c2)c(S(=O)(=O)NC(=O)NCCC(F)(F)F)s1.O=C(O)C(F)(F)F` [Example 41, 1-{[3-(3-fluoro-4-{[2-(propan-2-yl)-1H-imidazol-1-yl]methyl}phenyl)-5-(2-methylpropyl)thiophen-2-yl]sulfonyl}-3-(3,3,3-trifluoropropyl)urea trifluoroacetic acid], for which the figures for the half-life at 1 μM in data set [1] (setting [8]) and in data set [1] (setting [9]) were 43 min and greater than 60 min, respectively. The IC50 was 4.9 nM in data set [2] and 4 µM in data set [3]. Moreover, the inhibition at 10 µM was 5% in data set [4], 76% in data set [5], 10% in data set [6] and -5% in data set [7].
